Measurements from patent publication US7351744B2, “Naphthalene derivatives as termite repellents and toxicants” (Board of Supervisors of Louisiana State University and …, priority 2003, dated 2008).
One block for each compound: values may come before it.

Experiments:
[1] = system: Formosan subterranean termites; conditions: other tested naturally occurring compounds; cited from earlier work
[2] = Longevity and volatility of the eleven chemicals; type: physicochemical; conditions: among the eleven chemicals tested
termites = experiment: Naphthalene-related compounds, choice of treated or untreated food or sand; type: in vivo; conditions: no repellency up to this concentration; data not shown
Experimental: When termites were given a choice of treated or untreated food or sand, all four chemicals were repellents at concentrations of 40 μg/cm^2 treated filter paper or 100 mg/kg treated sand. […] Methoxynaphthalenes were more volatile than acetonaphthones and could spread more effectively into the untreated chambers. […] (Data not shown)

Compound: C=C(C)[C@@H]1CCC2=CC(=O)C[C@@H](C)[C@]2(C)C1 [nootkatone]
- concentration inhibiting tunneling and feeding behaviors [1]: 100 mg/kg

- longevity [2]: highest longevity
- volatility [2]: lowest volatility
Compound: CC(=O)c1cccc2ccccc12 [1′-acetonaphthone]

Compound: C/C=C(\C)C(=O)O[C@H]1C[C@@H](OC(C)=O)[C@@]2(C(=O)OC)CO[C@H]3[C@@H](O)[C@@](C)([C@]45O[C@@]4(C)[C@H]4C[C@@H]5O[C@@H]5OC=C[C@@]54O)[C@H]4[C@]1(CO[C@]4(O)C(=O)OC)[C@@H]32 [azadirachtin]
- concentration inhibiting tunneling and feeding behaviors [1]: 500 mg/kg

Compound: c1ccc2ccccc2c1 [Napthalene, naphthalene]
- concentration showing repellency (termites): > 500 μg/cm^2
